Source: patent publication US10758534B2 (Vertex Pharmaceuticals Incorporated, priority 2014, dated 2020)

Molecular target: T1, F508del (Homo sapiens, UniProt P13569, DEL508-508)
T1 construct: expressed in transfected cells
Assay: Protocol 1: membrane potential optical assay (FLIPR III, voltage sensing dye), identification of potentiator compounds
Type: cell-based
Settings: Table 3, compounds of Table 1
How it was run: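 NIH3T3 F508del cells, 27° C × 24 hrs; compound/DMSO pretreat → redistribution dye load → single forskolin addition with Cl⁻ gradient (gluconate-substituted bath, HEPES pH 7.4). FLIPR III membrane-potential fluorescence read.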

T1 sequence (P13569 with tags, fused parts or gaps DEL508-508): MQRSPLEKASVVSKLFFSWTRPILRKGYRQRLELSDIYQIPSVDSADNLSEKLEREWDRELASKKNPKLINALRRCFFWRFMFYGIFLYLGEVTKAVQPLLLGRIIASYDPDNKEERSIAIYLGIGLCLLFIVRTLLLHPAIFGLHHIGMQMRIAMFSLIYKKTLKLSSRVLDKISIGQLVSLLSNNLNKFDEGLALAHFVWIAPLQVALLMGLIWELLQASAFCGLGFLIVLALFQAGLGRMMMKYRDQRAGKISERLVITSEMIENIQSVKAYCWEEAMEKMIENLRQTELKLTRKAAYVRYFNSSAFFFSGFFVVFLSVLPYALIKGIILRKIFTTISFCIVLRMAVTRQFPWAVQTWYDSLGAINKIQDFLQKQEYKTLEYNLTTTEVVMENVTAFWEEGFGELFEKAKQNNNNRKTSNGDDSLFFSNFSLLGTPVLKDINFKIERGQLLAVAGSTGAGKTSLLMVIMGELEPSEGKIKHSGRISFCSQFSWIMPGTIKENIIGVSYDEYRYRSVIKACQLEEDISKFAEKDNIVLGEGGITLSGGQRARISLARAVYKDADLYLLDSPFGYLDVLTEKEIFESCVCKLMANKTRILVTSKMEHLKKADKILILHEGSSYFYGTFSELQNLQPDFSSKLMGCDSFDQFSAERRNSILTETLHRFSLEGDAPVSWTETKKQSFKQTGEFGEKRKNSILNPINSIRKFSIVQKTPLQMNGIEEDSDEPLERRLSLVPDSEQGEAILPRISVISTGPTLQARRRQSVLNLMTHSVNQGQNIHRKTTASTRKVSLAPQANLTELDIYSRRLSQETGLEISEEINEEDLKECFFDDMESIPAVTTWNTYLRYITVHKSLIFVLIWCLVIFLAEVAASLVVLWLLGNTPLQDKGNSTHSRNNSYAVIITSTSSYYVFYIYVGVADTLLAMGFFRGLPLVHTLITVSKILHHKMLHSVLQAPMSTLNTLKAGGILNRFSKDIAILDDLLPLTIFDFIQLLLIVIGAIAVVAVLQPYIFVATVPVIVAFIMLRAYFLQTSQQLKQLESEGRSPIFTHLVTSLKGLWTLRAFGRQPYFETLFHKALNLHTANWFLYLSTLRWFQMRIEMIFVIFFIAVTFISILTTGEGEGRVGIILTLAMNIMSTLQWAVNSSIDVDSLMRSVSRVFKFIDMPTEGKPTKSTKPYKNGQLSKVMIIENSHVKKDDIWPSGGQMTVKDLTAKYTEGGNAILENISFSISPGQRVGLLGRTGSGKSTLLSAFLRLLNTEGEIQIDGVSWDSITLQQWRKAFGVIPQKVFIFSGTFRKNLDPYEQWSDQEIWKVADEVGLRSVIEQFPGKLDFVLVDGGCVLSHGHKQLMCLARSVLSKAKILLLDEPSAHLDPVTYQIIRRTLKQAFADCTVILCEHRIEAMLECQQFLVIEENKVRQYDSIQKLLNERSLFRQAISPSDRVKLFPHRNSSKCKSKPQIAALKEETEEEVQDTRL

SMILES | EC30
CC(C)COc1cnn(-c2ccc(C(=O)NS(=O)(=O)c3ccc[nH]c3=O)c(N3C[C@@H](C)CC3(C)C)n2)c1 [Compound 1760, 6-(4-isobutoxypyrazol-1-yl)-N-[(2-oxo-1H-pyridin-3-yl)sulfonyl]-2-[(4S)-2,2,4-trimethylpyrrolidin-1-yl]pyridine-3-carboxamide] | ++ (“++” means between 3 uM and 10 uM)
CC(C)COc1cc(F)cc(-c2ccc(C(=O)NS(=O)(=O)c3cccc(N)n3)c(N3CCC(C)C3(C)C)n2)c1 (stereo not shown) [Compound 1121, N-[(6-amino-2-pyridyl)sulfonyl]-6-(3-fluoro-5-isobutoxy-phenyl)-2-(2,2,3-trimethylpyrrolidin-1-yl)pyridine-3-carboxamide] | +++ (“+++” means <3 uM)
CCCOc1cc(-c2ccc(C(=O)NS(=O)(=O)c3ccn[nH]3)c(N3[C@H](C)CC[C@@H]3C)n2)ccc1Cl [Compound 832, 6-(4-chloro-3-propoxy-phenyl)-2-[(2R,5S)-2,5-dimethylpyrrolidin-1-yl]-N-(1H-pyrazol-5-ylsulfonyl)pyridine-3-carboxamide] | +++ (“+++” means <3 uM)
CC(C)COc1cc(F)cc(-c2ccc(C(=O)NS(=O)(=O)c3ccccc3)c(N3C[C@@H](C)CC3(C)C)n2)c1 [Compound 1356, N-(benzenesulfonyl)-6-(3-fluoro-5-isobutoxy-phenyl)-2-[(4S)-2,2,4-trimethylpyrrolidin-1-yl]pyridine-3-carboxamide] | +++ (“+++” means <3 uM)
CC(C)COc1cncc(-c2ccc(C(=O)NS(=O)(=O)c3cccc(N)n3)c(N3CC(C)CC3(C)C)n2)n1 (stereo not shown) [Compound 988, N-[(6-amino-2-pyridyl)sulfonyl]-6-(6-isobutoxypyrazin-2-yl)-2-(2,2,4-trimethylpyrrolidin-1-yl)pyridine-3-carboxamide] | +++ (“+++” means <3 uM)
CC(C)COc1cc(F)cc(-c2ccc(C(=O)NS(=O)(=O)c3cccc(N)n3)c(OC3(Cc4ccccc4)CCC3)n2)c1 [Compound 1479, N-[(6-amino-2-pyridyl)sulfonyl]-2-(1-benzylcyclobutoxy)-6-(3-fluoro-5-isobutoxy-phenyl)pyridine-3-carboxamide] | +++ (“+++” means <3 uM)
CC(C)COc1cc(F)cc(-c2cnc(C(=O)NS(=O)(=O)c3cccc(N)n3)c(N3C[C@@H](C)CC3(C)C)n2)c1 [Compound 1526, NV [(6-amino-2-pyridyl)sulfonyl]-5-(3-fluoro-5-isobutoxy-phenyl)-3-[(4S)-2,2,4-trimethylpyrrolidin-1-yl]pyrazine-2-carboxamide] | +++ (“+++” means <3 uM)
Cc1nc(N(C)CC(C)C)ccc1-c1ccc(C(=O)NS(=O)(=O)c2cccc(N)n2)c(N2CC(C)CC2(C)C)n1 (stereo not shown) [Compound 827, N-[(6-amino-2-pyridyl)sulfonyl]-6-[6-[isobutyl(methyl)amino]-2-methyl-3-pyridyl]-2-(2,2,4-trimethylpyrrolidin-1-yl)pyridine-3-carboxamide] | +++ (“+++” means <3 uM)
CC[C@]1(C)C[C@H](C)CN1c1nc(-c2cc(F)cc(OCC(C)C)c2)ccc1C(=O)NS(=O)(=O)c1cccc(N)n1 (single isomer, unassigned) [Compound 1817, N-[(6-amino-2-pyridyl)sulfonyl]-2-(2-ethyl-2,4-dimethyl-pyrrolidin-1-yl)-6-(3-fluoro-5-isobutoxy-phenyl)pyridine-3-carboxamide] | +++ (“+++” means <3 uM)
Cc1cc(C)c(Oc2nc(C(F)(F)C(F)(F)F)ccc2C(=O)NS(=O)(=O)c2cccc(N)n2)c(C)c1 [Compound 853, N-[(6-amino-2-pyridyl)sulfonyl]-6-(1,1,2,2,2-pentafluoroethyl)-2-(2,4,6-trimethylphenoxy)pyridine-3-carboxamide] | +++ (“+++” means <3 uM)
CC(C)COc1cc(F)cc(-c2ccc(C(=O)NS(=O)(=O)c3cccc(N)n3)c(OCC3CCOCC3)n2)c1 [Compound 933, N-[(6-amino-2-pyridyl)sulfonyl]-6-(3-fluoro-5-isobutoxy-phenyl)-2-(tetrahydropyran-4-ylmethoxy)pyridine-3-carboxamide] | +++ (“+++” means <3 uM)
COc1cc(-c2cc(F)cc(OCC(C)C)c2)nc(N2[C@H](C)CC[C@@H]2C)c1C(=O)NS(=O)(=O)c1cccc(N)n1 [Compound 1254, N-[(6-amino-2-pyridyl)sulfonyl]-2-[(2S,5R)-2,5-dimethylpyrrolidin-1-yl]-6-(3-fluoro-5-isobutoxy-phenyl)-4-methoxy-pyridine-3-carboxamide] | +++ (“+++” means <3 uM)

Results, then the compound that gave them:

EC30 | SMILES
++ (“++” means between 3 uM and 10 uM) | CC(C)Oc1ccc(-c2nc(N3C[C@H](C)CC3(C)C)ccc2C(=O)NS(=O)(=O)c2cccc(N)n2)cn1 [Compound 1491, N-[(6-amino-2-pyridyl)sulfonyl]-2-(6-isopropoxy-3-pyridyl)-6-[(4R)-2,2,4-trimethylpyrrolidin-1-yl]pyridine-3-carboxamide]
+ (“+” means greater than 10 uM) | Cc1cc(C)c(Cn2nc(C(C)(C)C)cc2C(=O)NS(=O)(=O)c2cccnc2N)c(C)c1 [Compound 1106, N-[(2-amino-3-pyridyl)sulfonyl]-5-tert-butyl-2-[(2,4,6-trimethylphenyl)methyl]pyrazole-3-carboxamide]
++ (“++” means between 3 uM and 10 uM) | CNc1ccc(C(=O)NS(=O)(=O)c2cccc(N)n2)c(Oc2c(C)cc(C)cc2C)n1 [Compound 983, N-[(6-amino-2-pyridyl)sulfonyl]-6-(methylamino)-2-(2,4,6-trimethylphenoxy)pyridine-3-carboxamide]
+++ (“+++” means <3 uM) | CCOc1cccc2c1CN(Cc1ccc(C(C)C)cc1)C2(C)C(=O)NS(=O)(=O)c1cccc(N)n1 (stereo not shown) [Compound 1576, N-[(6-amino-2-pyridyl)sulfonyl]-4-ethoxy-2-[(4-isopropylphenyl)methyl]-1-methyl-isoindoline-1-carboxamide]
+++ (“+++” means <3 uM) | C[C@@H]1CN(c2nc(C3CCC(C(F)(F)F)CC3)ccc2C(=O)NS(=O)(=O)c2cccc(N)n2)C(C)(C)C1 (stereo partly drawn) [Compound 1672, N-[(6-amino-2-pyridyl)sulfonyl]-6-[4-(trifluoromethyl)cyclohexyl]-2-[(4S)-2,2,4-trimethylpyrrolidin-1-yl]pyridine-3-carboxamide]
+++ (“+++” means <3 uM) | COc1ccc(OC)c(-c2ccc(C(=O)NS(=O)(=O)c3cccc(N)n3)c(Oc3c(C)cc(C)cc3C)n2)c1 [Compound 1225, N-[(6-amino-2-pyridyl)sulfonyl]-6-(2,5-dimethoxyphenyl)-2-(2,4,6-trimethylphenoxy)pyridine-3-carboxamide]
++ (“++” means between 3 uM and 10 uM) | CC(C)Oc1ccc(-c2ccc(C(=O)NS(=O)(=O)c3ccn[nH]3)c(N3[C@H](C)CC[C@@H]3C)n2)cn1 [Compound 1074, 2-[(2S,5R)-2,5-dimethylpyrrolidin-1-yl]-6-(6-isopropoxy-3-pyridyl)-N-(1H-pyrazol-5-ylsulfonyl)pyridine-3-carboxamide]
++ (“++” means between 3 uM and 10 uM) | C[C@@H]1CN(c2nc3c(cc2C(=O)NS(=O)(=O)c2cccc(N)n2)CCC3)C(C)(C)C1 [Compound 1386, N-[(6-amino-2-pyridyl)sulfonyl]-2-[(4S)-2,2,4-trimethylpyrrolidin-1-yl]-6,7-dihydro-5H-cyclopenta[b]pyridine-3-carboxamide]
++ (“++” means between 3 uM and 10 uM) | CC(=O)C1CCC(c2ccc(C(=O)NS(=O)(=O)c3cccc(N)n3)c(Oc3c(C)cc(C)cc3C)n2)CC1 (stereo not shown) [Compound 1631, 6-(4-acetylcyclohexyl)-N-[(6-amino-2-pyridyl)sulfonyl]-2-(2,4,6-trimethylphenoxy)pyridine-3-carboxamide]
++ (“++” means between 3 uM and 10 uM) | CCc1cccc2c(C(=O)NS(=O)(=O)c3cccc(N)n3)n(Cc3c(C)cc(C)cc3C)nc12 [Compound 1086, N-[(6-amino-2-pyridyl)sulfonyl]-7-ethyl-2-[(2,4,6-trimethylphenyl)methyl]indazole-3-carboxamide]
+++ (“+++” means <3 uM) | CCC1(CC)CCCN(c2nc(-c3ccc(OC(C)C)nc3)ccc2C(=O)NS(=O)(=O)c2cccc(N)n2)C1 [Compound 971, N-[(6-amino-2-pyridyl)sulfonyl]-2-(3,3-diethyl-1-piperidyl)-6-(6-isopropoxy-3-pyridyl)pyridine-3-carboxamide]
+++ (“+++” means <3 uM) | CCOc1cccc2c1CN(Cc1c(C)cc(C)cc1C)C2(C)C(=O)NS(=O)(=O)c1cccc2[nH]ccc12 (stereo not shown) [Compound 1666, 4-ethoxy-N-(1H-indol-4-ylsulfonyl)-1-methyl-2-[(2,4,6-trimethylphenyl)methyl]isoindoline-1-carboxamide]
+++ (“+++” means <3 uM) | CC1CN(c2nc(C(C)(C)C)c(C3=CCN(C(=O)OC(C)(C)C)CC3)cc2C(=O)NS(=O)(=O)c2cccc(N)n2)C(C)(C)C1 (stereo not shown) [Compound 1522, tert-butyl 4-[5-[(6-amino-2-pyridyl)sulfonylcarbamoyl]-2-tert-butyl-6-(2,2,4-trimethylpyrrolidin-1-yl)-3-pyridyl]-3,6-dihydro-2H-pyridine-1-carboxylate]
+++ (“+++” means <3 uM) | Cc1cc(C)c(Cn2nc(C(C)(C)C)cc2C(=O)NS(=O)(=O)c2ccc(N)cc2)c(C)c1 [Compound 1653, N-(4-aminophenyl)sulfonyl-5-tert-butyl-2-[(2,4,6-trimethylphenyl)methyl]pyrazole-3-carboxamide]
+ (“+” means greater than 10 uM) | Cc1cc(C)c(Oc2nc(N3CCOCC3)ccc2C(=O)NS(=O)(=O)c2cccc(N)n2)c(C)c1 [Compound 966, N-[(6-amino-2-pyridyl)sulfonyl]-6-morpholino-2-(2,4,6-trimethylphenoxy)pyridine-3-carboxamide]
+++ (“+++” means <3 uM) | Cc1cc(C)c(Oc2nc(C3CCCCCC3)ccc2C(=O)NS(=O)(=O)c2cccc(N)n2)c(C)c1 [Compound 1376, N-[(6-amino-2-pyridyl)sulfonyl]-6-cycloheptyl-2-(2,4,6-trimethylphenoxy)pyridine-3-carboxamide]
